From patent US20180311238A1, “Selective Agonist Of a6 Containing nAChRs” (Saniona A/S, priority 2017, published 2018)
pKi: −log10 of the molar value.

Columns and labels:
[1] = target: T1, human α4β2 nicotinic receptors (Homo sapiens, UniProt P17787+P43681); assay: FLIPR fluorescence-based calcium assay, α4β2; assay type: cell-based; details: FLIPR calcium response relative to nicotine
T1 construct: expressed in transfected cells
Protocol: (§1) The level of agonist activity of 9-methyl-3-pyridin-3-yl-3,9-diaza-bicyclo[3.3.1]nonane was tested in functional fluorescence-based calcium assays using TE671 cells and HEK293 cells stably expressing human α6/α3β2β3^V273S, α3β4 and α4β2 nicotinic receptors.
(§2) Cells were plated on poly-D-lysine coated 384-well microtiter plates and were allowed to proliferate for 24 h. Dye loading was performed by incubating cells with 2 μM fluo-4/AM for 1.5 h at room temperature. Dye not taken up by cells was removed by aspiration followed by three washing cycles with 25 μl of NMDG Ringer buffer (in mM: 140 NMDG, 5 KCl, 1 MgCl2, 10 CaCl2, 10 HEPES, pH 7.4) after which the cells were kept in 25 μl of the same buffer. The microtiter plates were placed in a Fluoremetric Imaging Plate Reader (FLIPR) and subjected to test compound at various concentrations. Background subtracted compound-mediated calcium responses were normalized to 100 μM nicotine control responses and pEC50 as well as relative maximal efficacy values were determined.

[2] = target: T2, human α3β4 nicotinic receptors (Homo sapiens, UniProt P30926+P32297); assay: FLIPR fluorescence-based calcium assay, α3β4; assay type: cell-based; details: FLIPR calcium response relative to nicotine
T2 construct: expressed in transfected cells
Protocol: as §1, §2

[3] = target: T3, neuromuscular nAChRs subtype composed of α1β1γδ subunits (Homo sapiens, UniProt P02708+P07510+Q07001); assay: biochemical; assay type: binding
T3 construct: endogenous in cells; host or cells: TE671

α6/α3β2β3^V273S receptor = target: T4, α6/α3β2β3^V273S receptor (Homo sapiens, UniProt Q15825, V273S); assay: Oocyte two-electrode voltage-clamp electrophysiology, α6/α3β2β3V273S; assay type: cell-based; details: Xenopus laevis oocytes, fitted maximal current relative to acetylcholine; read-out: maximal efficacy compared to ACh
T4 construct: fused on or other part: P32297 (Neuronal acetylcholine receptor subunit alpha-3) P17787 (Neuronal acetylcholine receptor subunit beta-2)
Protocol: Two-electrode voltage-clamp electrophysiology recordings were done in Xenopus laevis oocytes injected with approximately 25 ng cRNA. After injection, oocytes were incubated at 17° C. for 2-3 days. During measurements, an oocyte was placed in a custom designed recording chamber where compound solutions are added directly to the oocyte via a glass capillary. Compound solutions were prepared on the day of measurement and applied to oocytes with a flowrate of 2.0 ml/min. All datasets were baseline subtracted and responses to individual applications were read as peak current amplitudes. Concentration response relationships describing compound effect at a fixed acetylcholine concentration were fitted to a monophasic Hill-equation. Potency (EC50) and efficacy values (fitted maximal current relative to maximal current of acetylcholine).

[4] = target: T5, neuromuscular α1-containing receptor subtypes (Homo sapiens, UniProt P02708+P07510+Q07001); assay: FLIPR fluorescence-based calcium assay, TE671 cells; assay type: cell-based; details: FLIPR calcium response relative to nicotine
T5 construct: endogenous in cells; host or cells: TE671
Protocol: as §1, §2
The neuromuscular nAChRs subtype—composed of α1β1γδ subunits—can be studied in the human medulloblastoma cell line TE671, and the α1 subunit can be specifically labelled with ^3H-α-bungarotoxin.

nicotinic receptors = assay: 3H-epibatidin displacement studies in rats; assay type: in vivo
[5] = test system: nicotinic receptors in the brain; assay type: in vivo, mice
Protocol: Accumulation of ^3H-epibatidine occurs preferentially in brain regions containing nicotinic receptors. […] The specific binding in thalamus reaches a maximum 30 min after an i.v. injection of ^3H-epibatidine and this maximum is maintained for another 30 min.
All test substances were administered as solutions or suspensions prepared in vehicle (e.g. saline, water, 5% glucose, 0.5% CMC, 0.5% HPMC or 10% HPβCD) and tested in serial 1:3 dilutions. Doses were adjusted for salt.
Groups of three female NMRI mice (25 g) were administered vehicle or test substance p.o. at a volume of 0.75 ml. Mice were injected i.v. via the tail vein with 1 μCi of ^3H-epibatidine in 0.2 ml saline 45 min before decapitation. At the time of decapitation, the thalamus and a piece of cerebellum were rapidly dissected on ice. Tissues were weighed and dissolved for 36 h with 1 ml 2% sodium-laurylsulfate. The solubilized tissue was then added 2 ml of scintillation cocktail, and the amount of radioactivity in the tissue was counted by conventional liquid scintillation counting. Groups of vehicle-treated mice served as controls. Non-specific binding was defined as the amount of binding in cerebellum in vehicle treated mice.
Specific binding was determined as the amount of binding (dpm/5 mg tissue) in thalamus minus the amount of binding in cerebellum (dpm/5 mg tissue) in vehicle mice. […]

T3 sequence (P02708 21-457): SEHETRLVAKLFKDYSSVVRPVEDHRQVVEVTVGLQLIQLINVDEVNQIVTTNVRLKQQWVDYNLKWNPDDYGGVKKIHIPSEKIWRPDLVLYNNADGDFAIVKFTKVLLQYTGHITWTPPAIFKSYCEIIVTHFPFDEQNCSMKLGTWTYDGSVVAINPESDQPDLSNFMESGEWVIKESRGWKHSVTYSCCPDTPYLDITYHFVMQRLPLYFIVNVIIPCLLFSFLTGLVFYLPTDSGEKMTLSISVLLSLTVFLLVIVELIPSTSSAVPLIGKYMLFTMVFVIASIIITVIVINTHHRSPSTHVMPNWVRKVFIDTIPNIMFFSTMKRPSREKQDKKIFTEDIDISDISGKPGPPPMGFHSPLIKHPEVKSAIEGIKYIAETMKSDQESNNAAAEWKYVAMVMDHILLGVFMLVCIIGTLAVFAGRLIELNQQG
T3 sequence (Q07001 22-517): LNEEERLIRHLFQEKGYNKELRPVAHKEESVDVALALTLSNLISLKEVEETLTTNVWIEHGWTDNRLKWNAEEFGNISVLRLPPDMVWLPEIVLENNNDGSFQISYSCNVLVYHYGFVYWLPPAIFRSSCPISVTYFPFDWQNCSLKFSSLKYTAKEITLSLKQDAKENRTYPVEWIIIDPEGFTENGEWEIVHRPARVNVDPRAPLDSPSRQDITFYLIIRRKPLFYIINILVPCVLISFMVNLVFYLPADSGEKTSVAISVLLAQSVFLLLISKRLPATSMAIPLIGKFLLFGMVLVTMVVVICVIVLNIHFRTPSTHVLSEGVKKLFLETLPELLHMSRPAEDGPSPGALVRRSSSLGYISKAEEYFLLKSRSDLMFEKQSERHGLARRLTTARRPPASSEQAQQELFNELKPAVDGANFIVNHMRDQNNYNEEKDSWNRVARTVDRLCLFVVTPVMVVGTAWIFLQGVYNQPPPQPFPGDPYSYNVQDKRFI
T3 sequence (P07510 23-517): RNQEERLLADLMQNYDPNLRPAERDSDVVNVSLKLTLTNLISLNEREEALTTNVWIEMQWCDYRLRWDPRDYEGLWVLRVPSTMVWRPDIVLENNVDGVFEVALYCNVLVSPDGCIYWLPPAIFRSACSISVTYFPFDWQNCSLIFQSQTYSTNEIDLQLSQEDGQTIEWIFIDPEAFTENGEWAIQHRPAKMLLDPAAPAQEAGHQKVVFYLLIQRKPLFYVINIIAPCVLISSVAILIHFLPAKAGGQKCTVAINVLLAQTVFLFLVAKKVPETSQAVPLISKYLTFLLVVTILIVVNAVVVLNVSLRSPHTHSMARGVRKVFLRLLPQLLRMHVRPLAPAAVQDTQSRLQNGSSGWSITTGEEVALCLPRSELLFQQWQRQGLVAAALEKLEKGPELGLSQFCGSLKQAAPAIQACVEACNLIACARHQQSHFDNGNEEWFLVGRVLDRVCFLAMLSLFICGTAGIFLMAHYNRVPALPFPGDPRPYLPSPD
T3 sequence (P11230 24-501, further chain): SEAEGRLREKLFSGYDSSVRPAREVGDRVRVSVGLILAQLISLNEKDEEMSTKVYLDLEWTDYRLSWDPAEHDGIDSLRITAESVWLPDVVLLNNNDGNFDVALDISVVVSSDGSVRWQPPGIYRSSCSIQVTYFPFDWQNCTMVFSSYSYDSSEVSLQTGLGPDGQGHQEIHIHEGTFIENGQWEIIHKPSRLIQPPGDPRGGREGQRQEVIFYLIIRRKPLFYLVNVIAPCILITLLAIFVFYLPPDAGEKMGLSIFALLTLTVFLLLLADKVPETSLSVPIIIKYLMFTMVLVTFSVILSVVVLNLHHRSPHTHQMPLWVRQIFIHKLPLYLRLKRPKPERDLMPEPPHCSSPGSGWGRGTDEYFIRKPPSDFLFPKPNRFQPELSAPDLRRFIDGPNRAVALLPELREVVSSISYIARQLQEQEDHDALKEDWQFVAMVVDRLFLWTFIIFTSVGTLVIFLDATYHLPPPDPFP
T5 sequence (P02708 21-457): as the sequence (P02708 21-457) above
T5 sequence (P11230 24-501 partner): as the sequence (P11230 24-501, further chain) above
T5 sequence (P07510 23-517): as the sequence (P07510 23-517) above
T5 sequence (Q07001 22-517): as the sequence (Q07001 22-517) above
T1 sequence (P43681 29-627 limits assumed): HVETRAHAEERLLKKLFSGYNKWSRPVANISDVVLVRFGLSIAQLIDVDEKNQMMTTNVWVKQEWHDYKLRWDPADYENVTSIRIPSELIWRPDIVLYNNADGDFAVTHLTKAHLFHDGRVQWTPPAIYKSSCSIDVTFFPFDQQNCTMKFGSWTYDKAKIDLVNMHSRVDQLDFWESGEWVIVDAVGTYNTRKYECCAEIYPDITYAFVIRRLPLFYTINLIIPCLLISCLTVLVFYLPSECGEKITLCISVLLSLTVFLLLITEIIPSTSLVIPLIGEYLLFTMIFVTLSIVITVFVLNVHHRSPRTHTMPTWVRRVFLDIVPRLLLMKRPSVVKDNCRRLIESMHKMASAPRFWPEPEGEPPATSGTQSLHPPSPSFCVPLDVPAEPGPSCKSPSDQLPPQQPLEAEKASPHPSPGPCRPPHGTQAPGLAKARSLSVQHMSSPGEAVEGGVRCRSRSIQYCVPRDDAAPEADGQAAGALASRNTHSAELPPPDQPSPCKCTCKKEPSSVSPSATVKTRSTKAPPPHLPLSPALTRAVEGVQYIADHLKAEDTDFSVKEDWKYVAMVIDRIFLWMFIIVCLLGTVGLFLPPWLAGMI
T1 sequence (P17787 26-502): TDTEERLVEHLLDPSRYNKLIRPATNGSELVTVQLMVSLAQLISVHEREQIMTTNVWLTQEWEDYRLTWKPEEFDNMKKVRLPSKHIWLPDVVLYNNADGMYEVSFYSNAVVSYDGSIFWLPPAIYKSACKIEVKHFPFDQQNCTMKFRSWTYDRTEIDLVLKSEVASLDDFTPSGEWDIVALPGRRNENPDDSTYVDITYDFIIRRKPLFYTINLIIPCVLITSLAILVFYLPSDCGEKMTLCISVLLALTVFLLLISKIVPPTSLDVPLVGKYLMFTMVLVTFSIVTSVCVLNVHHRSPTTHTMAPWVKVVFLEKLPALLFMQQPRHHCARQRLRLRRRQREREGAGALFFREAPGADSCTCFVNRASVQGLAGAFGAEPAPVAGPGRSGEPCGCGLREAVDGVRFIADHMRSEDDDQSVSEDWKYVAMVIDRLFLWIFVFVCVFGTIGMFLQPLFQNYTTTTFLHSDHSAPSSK
T2 sequence (P32297 32-505): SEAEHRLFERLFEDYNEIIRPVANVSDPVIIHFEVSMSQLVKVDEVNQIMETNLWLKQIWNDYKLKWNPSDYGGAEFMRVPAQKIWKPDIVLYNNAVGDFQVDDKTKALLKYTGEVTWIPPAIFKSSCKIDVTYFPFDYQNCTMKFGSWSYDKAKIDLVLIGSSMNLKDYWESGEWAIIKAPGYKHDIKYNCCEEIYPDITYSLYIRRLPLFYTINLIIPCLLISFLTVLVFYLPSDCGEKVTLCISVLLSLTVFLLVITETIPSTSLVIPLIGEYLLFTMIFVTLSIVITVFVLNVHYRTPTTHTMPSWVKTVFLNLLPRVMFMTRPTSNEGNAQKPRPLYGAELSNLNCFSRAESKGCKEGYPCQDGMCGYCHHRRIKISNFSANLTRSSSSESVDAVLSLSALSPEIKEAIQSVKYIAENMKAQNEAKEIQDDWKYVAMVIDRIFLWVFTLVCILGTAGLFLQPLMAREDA
T2 sequence (P30926 22-498): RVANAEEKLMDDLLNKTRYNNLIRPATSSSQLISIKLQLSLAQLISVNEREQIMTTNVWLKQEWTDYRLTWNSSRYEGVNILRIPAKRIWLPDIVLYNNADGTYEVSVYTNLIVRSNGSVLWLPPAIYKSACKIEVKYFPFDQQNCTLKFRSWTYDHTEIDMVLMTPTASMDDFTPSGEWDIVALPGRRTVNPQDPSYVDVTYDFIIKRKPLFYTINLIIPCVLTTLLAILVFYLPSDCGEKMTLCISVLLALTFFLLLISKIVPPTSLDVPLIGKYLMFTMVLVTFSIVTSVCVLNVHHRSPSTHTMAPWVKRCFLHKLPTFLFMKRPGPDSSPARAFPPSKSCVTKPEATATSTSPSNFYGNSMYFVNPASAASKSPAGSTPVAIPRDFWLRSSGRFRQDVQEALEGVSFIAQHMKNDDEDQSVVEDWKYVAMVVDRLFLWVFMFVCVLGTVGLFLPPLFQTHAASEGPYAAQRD
T4 sequence (Q15825 26-239 limits assumed): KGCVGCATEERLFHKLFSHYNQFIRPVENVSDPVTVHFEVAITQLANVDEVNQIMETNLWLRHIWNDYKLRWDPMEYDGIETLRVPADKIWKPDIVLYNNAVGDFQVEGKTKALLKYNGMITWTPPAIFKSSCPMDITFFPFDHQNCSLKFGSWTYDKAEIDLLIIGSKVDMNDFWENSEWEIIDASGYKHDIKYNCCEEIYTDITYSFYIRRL
T4 sequence (P17787 26-502, further chain): as the sequence (P17787 26-502) above
T4 sequence (Q05901 22-458 V273S, further chain): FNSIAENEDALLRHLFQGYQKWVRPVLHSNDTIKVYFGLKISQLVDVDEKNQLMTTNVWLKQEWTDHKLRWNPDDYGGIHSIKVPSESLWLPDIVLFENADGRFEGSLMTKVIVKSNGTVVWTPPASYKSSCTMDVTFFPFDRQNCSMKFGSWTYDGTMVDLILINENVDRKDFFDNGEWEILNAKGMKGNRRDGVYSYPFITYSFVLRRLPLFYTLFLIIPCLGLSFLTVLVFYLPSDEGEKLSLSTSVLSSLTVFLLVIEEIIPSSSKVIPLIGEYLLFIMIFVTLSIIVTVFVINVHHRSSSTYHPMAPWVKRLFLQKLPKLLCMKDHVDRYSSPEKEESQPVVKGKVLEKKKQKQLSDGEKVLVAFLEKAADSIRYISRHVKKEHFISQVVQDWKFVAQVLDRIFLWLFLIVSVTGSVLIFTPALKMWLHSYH

CN1C2CCCC1CN(c1cccnc1)C2 [9-methyl-3-pyridin-3-yl-3,9-diaza-bicyclo[3.3.1]nonane]
efficacy [1]: practically no efficacy
efficacy [2]: practically no efficacy
pKi [3]: 6.49
Emax (α6/α3β2β3^V273S receptor): 27%
efficacy [4]: practically no efficacy
dose giving half maximal displacement of specific binding of 3H-epibatidin (nicotinic receptors): 0.15 mg/kg
ED50, inhibition of specific binding of 3H-epibatidine ([5]; mice pre-dosed for 45 min, p.o.): 1.3 mg/kg
maintained brain exposure (duration) ([5]; mice, 2 mg/kg p.o., time course up to 6 hours): at least 6 hours
